Experimental data reported in patent US4052262A (priority 1969, dated 1977).
Where two headings read alike, the source gives them in different places.

Biological target: T1, alkaline protease (crystalline enzyme of the present invention) from Bacillus sp. No. 221 (ATCC 21522), Bacillus sp. No. 0-4 (ATCC 21536) or Bacillus sp. No. Y- (Shouchella clausii, UniProt P41362)
T1 construct: made in house; host or cells: culture of the wild Bacillus strain (No. 221, No. 0-4 or No. Y-76); native enzyme isolated from the culture
T1 sequence (P41362 112-380): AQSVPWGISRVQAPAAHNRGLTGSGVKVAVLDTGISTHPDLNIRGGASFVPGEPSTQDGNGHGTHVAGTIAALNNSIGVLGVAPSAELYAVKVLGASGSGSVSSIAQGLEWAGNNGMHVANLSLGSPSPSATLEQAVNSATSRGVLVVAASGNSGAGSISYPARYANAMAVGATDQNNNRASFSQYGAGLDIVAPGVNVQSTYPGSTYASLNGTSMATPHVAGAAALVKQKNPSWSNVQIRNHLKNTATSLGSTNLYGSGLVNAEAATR
Format: biochemical, No. Y-76
Protocol: One milliliter of the enzyme solution suitably diluted with 10^-2 M CaCl2 was mixed with 5 ml of 0.6% casein solution (pH 11.5, 2 × 10^-2 M Na2 HPO4 - NaOH buffer) at 30° C. After 10 minutes' incubation, 5 ml of trichloroacetic acid solution (0.11M trichloroacetic acid, 0.22M sodium acetate, and 0.33M acetic acid) was added to the reaction mixture and the mixture was further incubated at 30° C for 30 minutes. The mixture was filtered and the absorbance of the filtrate was measured at 275 mμ. The readings were corrected by substracting the value of the blank in which the enxyme solution was mixed with trichloroacetic acid solution before the casein solution was added.
One unit of protease activity is defined as the amount of enzyme required to produce the digest which is not precipitated by trichloroacetic acid and which gives absorbance value equivalent to 1 γ of tyrosine per minute at 30° C. The relative activity is the activity at any pH divided by the maximum activity and multiplied by 100. FIG. 4 of this application gives the data of the absolute activity (arbitrary scale) on the ordinate and the pH's on the axis of the abscissa.

NC(N)=O [Urea]
Residual activity (additive concentration 6 M): 0%

O=C(O)CN(CCN(CC(=O)O)CC(=O)O)CC(=O)O [EDTA, ethylenediaminetetraacetic acid]
Residual activity: 100%

O=C(O)c1cc[c]([Hg][Cl])cc1 [PCMB, p-chloromercuribenzoate]
Residual activity (additive concentration 10^-3 M): 100%
